Experimental data reported in US20210161134A1, “HERBICIDE AND METHOD OF APPLYING A HERBICIDE” (priority 2015, published 2021).
Like-named read-outs stand apart in the source and are kept apart here.

What was measured:
hounds tongue = assay: Killing of hounds tongue by amino acid; format: in vivo
common yarroen = assay: Killing of common yarrow by amino acid; format: in vivo
hoary alssum = assay: Killing of hoary alyssum by amino acid; format: in vivo
morning glories = assay: Killing of morning glories by amino acid; format: in vivo
wild rubarb = assay: Killing of wild rhubarb by amino acid; format: in vivo
Field Bindweed = assay: Killing of field bindweed by amino acid (FIG. 4); format: in vivo
dandilions = assay: Killing of dandelions by amino acid herbicide; format: in vivo, dandelion
Canada thistle = assay: Killing of Canada thistle by amino acid herbicide (FIG. 1)
Rush Skeleton weed = assay: Killing of rush skeleton weed by amino acid (FIG. 3); format: in vivo
leafy spurge = assay: Killing of leafy spurge by amino acids; format: in vivo
Spotted Knapweed = assay: Killing of spotted knapweed by amino acids; format: in vivo

| SMILES | kill of the weed (hounds tongue) | kill of the weed (common yarroen) | kill of the weed (hoary alssum) | kill of the weed (morning glories) | kill of the weed (wild rubarb) | kill of the weed (Field Bindweed) | kill of the weed (dandilions) | kill of the weed (Canada thistle) | kill of the weed (Canada thistle; listed as lysine) | kill of the weed (Rush Skeleton weed) | kill of the weed (Rush Skeleton weed; listed as Lysine) | kill of the weed (leafy spurge) | kill of the weed (poa anna) | kill of the weed (Kudzu) | kill of the weed (Kudzu; listed as Methionine) | kill of the weed (Spotted Knapweed) | kill of the weed (eurasian milfoil) |
| --- | --- | --- | --- | --- | --- | --- | --- | --- | --- | --- | --- | --- | --- | --- | --- | --- | --- |
| NCCCC[C@H](N)C(=O)O [L-Lysine] | kill | kill | kill | kill | kill | killed | kill | kill | kills the plant | kill | killed | kill |  |  |  |  |  |
| CSCC[C@H](N)C(=O)O [L-methionine] |  |  |  |  |  |  |  | kills the plant |  |  |  |  | kill | kill | killed | kill | kill |
| CC(C)[C@H](N)C(=O)O [Valine] | killed |  |  |  |  |  |  |  |  |  |  |  |  |  |  |  |  |
